# Assay results taken from ChEMBL document CHEMBL1147881, “Synthesis and herbicidal activity of novel pyrazolo[3,4-d]pyrimidin-4-one derivatives containing aryloxyphenoxypropionate moieties” (2007).
# Tests used:
# Type in all cases: functional
# Brassica napus [1] = experiment: Herbicidal activity against rape assessed as inhibition of stalk growth at 10 mg/L relative to control
# Brassica napus [2] = experiment: Herbicidal activity against rape assessed as inhibition of stalk growth at 100 mg/L relative to control
# Echinochloa crus-galli [3] = experiment: Herbicidal activity against barnyard grass assessed as inhibition of stalk growth at 100 mg/L relative to control
# Echinochloa crus-galli [4] = experiment: Herbicidal activity against barnyard grass assessed as inhibition of stalk growth at 10 mg/L relative to control
# Brassica napus [5] = experiment: Herbicidal activity against rape assessed as inhibition of root growth at 10 mg/L relative to control
# Echinochloa crus-galli [6] = experiment: Herbicidal activity against barnyard grass assessed as inhibition of root growth at 100 mg/L relative to control
# Brassica napus [7] = experiment: Herbicidal activity against rape assessed as inhibition of root growth at 100 mg/L relative to control
# Echinochloa crus-galli [8] = experiment: Herbicidal activity against barnyard grass assessed as inhibition of root growth at 10 mg/L relative to control
SMILES,inhibition at 10 µg/mL (Brassica napus [1]) [%],inhibition at 100 µg/mL (Brassica napus [2]) [%],inhibition at 100 µg/mL (Echinochloa crus-galli [3]) [%],inhibition at 10 µg/mL (Echinochloa crus-galli [4]) [%],inhibition at 10 µg/mL (Brassica napus [5]) [%],inhibition at 100 µg/mL (Echinochloa crus-galli [6]) [%],inhibition at 100 µg/mL (Brassica napus [7]) [%],inhibition at 10 µg/mL (Echinochloa crus-galli [8]) [%]
CCOC(=O)C(C)Oc1ccc(Oc2nc3c(c(SCc4ccccc4)nn3-c3ccccc3)c(=O)n2C(=O)Nc2cccc(C)c2)cc1 (stereo not drawn),-2.1,10.6,-6.4,-6.4,24.4,61.9,32.2,33.3
CCOC(=O)C(C)Oc1ccc(Oc2nc3c(c(SC)nn3-c3ccccc3)c(=O)n2C(=O)Nc2cccc(C)c2)cc1 (stereo not drawn),9.6,63.5,0,-12.9,46.5,88.5,97,59.6
COC(=O)C(C)Oc1ccc(Oc2nc3c(c(S(C)(=O)=O)nn3-c3ccccc3)c(=O)n2C(=O)Nc2ccccc2)cc1 (stereo not drawn),13.3,48.9,31.6,5.3,25,93.3,80.4,66.7
CCOC(=O)COc1ccc(Oc2nc3c(c(SCc4ccccc4)nn3-c3ccccc3)c(=O)n2C(=O)Nc2cccc(C)c2)cc1,20,24,-10.5,5.3,20.6,75.5,64.1,66.7
CCCOC(=O)C(C)Oc1ccc(Oc2nc3c(c(S(C)(=O)=O)nn3-c3ccccc3)c(=O)n2C(=O)Nc2ccccc2Cl)cc1 (stereo not drawn),-17.8,42.2,23.3,16.7,17.4,80,67.4,50
COC(=O)C(C)Oc1ccc(Oc2nc3c(c(SC)nn3-c3ccccc3)c(=O)n2C(=O)Nc2ccccc2)cc1 (stereo not drawn),20.5,76.9,68.9,44.8,40.2,93.5,96.1,63
COC(=O)C(C)Oc1ccc(Oc2nc3c(c(S(C)(=O)=O)nn3-c3ccccc3)c(=O)n2C(=O)Nc2ccccc2F)cc1 (stereo not drawn),0,0,-21,10.5,16.3,53.3,28,33.3
CCOC(=O)C(C)Oc1ccc(Oc2nc3c(c(SC)nn3-c3ccccc3)c(=O)n2C(=O)Nc2ccccc2)cc1 (stereo not drawn),12.9,46.2,32.3,12.9,57.4,88.5,86.1,57.7
CCCOC(=O)C(C)Oc1ccc(Oc2nc3c(c(SC)nn3-c3ccccc3)c(=O)n2C(=O)Nc2ccccc2Cl)cc1 (stereo not drawn),10.6,8.5,25.8,25.8,5.5,64.3,36.7,53.4
CCOC(=O)C(C)Oc1ccc(Oc2nc3c(c(S(C)(=O)=O)nn3-c3ccccc3)c(=O)n2C(=O)Nc2cccc(C)c2)cc1 (stereo not drawn),17.9,74.4,51.7,3.4,51,95.6,98,54.3
CCOC(=O)C(C)Oc1ccc(Oc2nc3c(c(S(=O)(=O)Cc4ccccc4)nn3-c3ccccc3)c(=O)n2C(=O)Nc2cccc(C)c2)cc1 (stereo not drawn),6.7,6.7,16.7,13.3,9.8,72.5,34.8,50
